From patent US20240115654A1, “INTRAVENOUS ADMINISTRATION OF ENGINEERED ANTIMICROBIAL AMPHIPHILIC PEPTIDES” (priority 2021, published 2024)
Converted amounts (≈) assume the structure as drawn. Blank lines part the entries; values can stand above or below the compound they belong to. Peptide text beside a SMILES is read from it.

Columns and labels:
[1] = system: Acinetobacter baumannii ATCC 19606 (non-MDR); format: cell-based; settings: ATCC 19606
Method: (§1) Each peptide was formulated in PBS buffer prior to testing. Peptides of SEQ ID NO:5 and SEQ ID NO:8 were brought up in 100% DMSO with 0.002% polysorbate-80 at 1.28 mg/mL (40× the highest final test concentration of 32 mcg/mL). Final test concentration of DMSO was 2.5% in the assay at the first dilution for those two compounds.
(§2) Mueller Hinton II broth (MHB II; BD; Lot Nos. 6258541 and 7143896) was used for MIC testing of aerobic organisms. 0.002% polysorbate 80 (P80) was added to the test medium.
(§3) MIC values were determined using a broth microdilution procedure described by CLSI (1, 3). Automated liquid handlers (Multidrop 384, Labsystems, Helsinki, Finland; Biomek 2000 and Biomek FX, Beckman Coulter, Fullerton CA) were used to conduct serial dilutions and liquid transfers.
(§4) To prepare the drug mother plates, which would provide the serial peptide dilutions for the replicate daughter plates, the wells of columns 2-12 of standard 96-well microdilution plates (Costar 3795) were filled with 150 μl of the designated diluent for each row of peptide. The test articles and comparator compounds (300 μl at 40× the highest concentration to be tested) were dispensed into the appropriate wells in column 1. The Biomek 2000 was then used to make 2-fold serial dilutions in the mother plates from column 1 through column 11. The wells of Column 12 contained no drug and served as the organism growth control wells for the assay.
(§5) The daughter plates were loaded with 185 μL per well of MHB II using the Multidrop 384. The daughter plates were completed on the Biomek FX instrument which transferred 5 uL of peptide solution from each well of a mother plate to the corresponding well of each daughter plate in a single step. A standardized inoculum of each test organism was prepared per CLSI methods. The inoculum for each organism was dispensed into sterile reservoirs divided by length (Beckman Coulter), and the Biomek 2000 was used to inoculate the plates. Daughter plates were placed on the Biomek 2000 work surface in reverse orientation so that inoculation took place from low to high drug concentration. The plates were then inoculated with 10 μL of the inoculum resulting in a final cell density of approximately 5×10^5 CFU/mL, per well.
(§6) Plates were stacked 3-4 high, covered with a lid on the top plate, placed in plastic bags, and incubated at 35° C. for 16 to 20 hrs. Following incubation, the microplates were removed from the incubator and viewed from the bottom using a plate viewer. […] The MIC was read and recorded as the lowest concentration of peptide that inhibited visible growth of the organism.

[2] = system: Acinetobacter baumannii ATCC BAA-1797 (MDR); format: cell-based; settings: ATCC BAA-1797
Method: as §1, §2, §3, §4, §5, §6

[3] = system: Enterococcus faecalis ATCC 29212 (VSE; QC); format: cell-based; settings: ATCC 29212
Method: as §1, §2, §3, §4, §5, §6

[4] = system: Enterococcus faecalis ATCC 700802 (V583 VRE); format: cell-based; settings: ATCC 700802
Method: as §1, §2, §3, §4, §5, §6

[5] = system: Enterococcus faecium ATCC 51559 (VRE); format: cell-based; settings: ATCC 51559
Method: as §1, §2, §3, §4, §5, §6

[6] = system: Escherichia coli ATCC 25922 (QC); format: cell-based; settings: ATCC 25922
Method: as §1, §2, §3, §4, §5, §6

[7] = system: Escherichia coli ATCC 35218 (ESBL); format: cell-based; settings: ATCC 35218
Method: as §1, §2, §3, §4, §5, §6

[8] = system: Escherichia coli ATCC BAA-2471 (NDM-1); format: cell-based; settings: ATCC BAA-2471
Method: as §1, §2, §3, §4, §5, §6

[9] = system: Klebsiella pneumoniae ATCC BAA-1705 (KPC); format: cell-based; settings: ATCC BAA-1705
Method: as §1, §2, §3, §4, §5, §6

[10] = system: Pseudomonas aeruginosa ATCC 27853 (non-MDR; QC); format: cell-based; settings: ATCC 27853
Method: as §1, §2, §3, §4, §5, §6

[11] = system: Pseudomonas aeruginosa ATCC BAA-2109 (MDR); format: cell-based; settings: ATCC BAA-2109
Method: as §1, §2, §3, §4, §5, §6

[12] = system: Staphylococcus aureus ATCC 29213 (MSSA; QC); format: cell-based; settings: ATCC 29213
Method: as §1, §2, §3, §4, §5, §6

[13] = system: Staphylococcus aureus ATCC 43300 (MRSA); format: cell-based; settings: ATCC 43300
Method: as §1, §2, §3, §4, §5, §6

[14] = system: Staphylococcus aureus NRS382 (USA100; HA-MRSA); format: cell-based; settings: USA100
Method: as §1, §2, §3, §4, §5, §6

[15] = system: Streptococcus pneumoniae ATCC 49619 (QC); format: cell-based; settings: ATCC 49619
Method: as §1, §2, §3, §4, §5, §6

[16] = system: Streptococcus pyogenes ATCC 49399; format: cell-based; settings: ATCC 49399
Method: as §1, §2, §3, §4, §5, §6

[17] = system: S. aureus strain SH1000 biofilms; assay: In vitro biofilm disruption on stainless steel rods; format: cell-based, Staphylococcus aureus; settings: S. aureus SH1000, 10×MIC, up to 24 hours, FIG. 15
Text: FIG. 15 depicts the effect of administration of SEQ ID NO:1 and cefazolin on biofilm maintenance. […] SEQ ID NO:1 eliminated mature implant biofilms on a model strain of S. aureus, SH1000.

S. aureus = assay: Periprosthetic joint infection model, implant biofilm CFU; format: in vivo; settings: mouse, intraperitoneal; SEQ ID NO:1 0.1-10 mg/kg; compared to untreated control mice, FIG. 16
Method: Periprosthetic joint infection was modeled in a mouse by placing an intra-articular K-wire through the medullary canal of the proximal femur followed by intra-articular inoculation with S. aureus. Animals were treated systemically with an intraperitoneal delivery of cefazolin, rifampin, or the exemplary peptide of SEQ ID NO: 1. Intraperitoneal delivery was chosen due to technical difficulties associated with intravenous delivery. Implant sonication and proximal femur homogenate were used to quantify viable bacteria.

[18] = system: P. aeruginosa strains (PAO1 and 2 clinical isolates); assay: Determination of bacterial resistance, passage at 0.5×MIC with daily MIC; format: cell-based, Pseudomonas aeruginosa; settings: three P. aeruginosa strains, exposure at 0.5×MIC, FIG. 20
Text: Each antibiotic was compared for their propensity to select for bacterial resistance phenotypes in vitro.

- MIC [1]: >32 µg/mL
- MIC [2]: >32 µg/mL
- MIC [3]: >32 µg/mL
- MIC [4]: >32 µg/mL
- MIC [5]: 16 µg/mL (≈ 9.15 µM)
- MIC [6]: >32 µg/mL
- MIC [7]: 32 µg/mL (≈ 18.3 µM)
- MIC [8]: 16 µg/mL (≈ 9.15 µM)
- MIC [9]: >32 µg/mL
- MIC [10]: >32 µg/mL
- MIC [11]: >32 µg/mL
- MIC [12]: >32 µg/mL
- MIC [13]: >32 µg/mL
- MIC [14]: >32 µg/mL
- MIC [15]: >32 µg/mL
- MIC [16]: 16 µg/mL (≈ 9.15 µM)
Compound: CC(C)[C@H](N)C(=O)N[C@H](C(=O)N[C@@H](CCCNC(=N)N)C(=O)N[C@H](C(=O)N[C@H](C(=O)N[C@@H](CCCNC(=N)N)C(=O)N[C@@H](CCCNC(=N)N)C(=O)N[C@H](C(=O)N[C@H](C(=O)N[C@@H](CCCNC(=N)N)C(=O)N[C@H](C(=O)N[C@H](C(=O)N[C@@H](CCCNC(=N)N)C(=O)N[C@@H](CCCNC(=N)N)C(=O)O)C(C)C)C(C)C)C(C)C)C(C)C)C(C)C)C(C)C)C(C)C [SEQ ID NO: 7] (H-VVRVVRRVVRVVRR-OH; N-terminus and C-terminus assumed)

Compound: Cc1nnc(SCC2=C(C(=O)O)N3C(=O)[C@@H](NC(=O)Cn4cnnn4)[C@H]3SC2)s1 [cefazolin]
- reduction of mature biofilm on stainless steel rods [17]: did not achieve a three-log reduction
- reduction of implant biofilm CFU burden (sonicate culture) (S. aureus): one log reduction in viable bacteria

Compound: LL-37 [LL37]
- time to development of resistance (fold MIC >10) [18]: ≤ 9 days
